The data set can be described thus: Pharmacokinetic evaluation after intramuscular injection to rats. Type of data set: in vivo. The following applies: im, male rat, solution, 17.5 mg/kg, vortioxetine in plasma. The protocol:
The LC/MS/MS system for analysis consists of the Agilent 1200 series vacuum degassing furnace, binary syringe pump, well plate autosampler, column incubator, and API4000 three-stage quadrupole mass spectrometer equipped with electro spray ionization (ESI) source.
Waters XBridge™ C18, 2.1×30 mm, 3.5 μM column was used for analysis, and 20 μL of sample was injected. Analytical conditions: the mobile phase was (2 mM ammonium formate+0.1% formic acid) (A) and (methanol+2 mM ammonium formate+0.1% formic acid) (B). The flow rate was 0.5 mL/min.
In addition, the API4000 Series LC/MS/MS spectrometer for analysis was equipped with a G1312A binary syringe pump, G1367A autosampler and MS/MS detector; ESI source was used in LC/MS/MS spectrometer. Each analyte was treated in a suitable cation model and optimally analyzed by MRM conversion with using standard solutions. Waters XBridge™ C18 was used during the analysis and the size was: 2.1×30 mm, 3.5 μM. The mobile phase was (2 mM ammonium formate+0.1% formic acid) (A) and (methanol+2 mM ammonium formate+0.1% formic acid) (B). The flow rate was 0.5 mL/min; the column temperature was maintained at 40° C.; 15 μL of sample was injected.
The present invention evaluates the pharmacokinetic study of a series of compounds of the invention in rats. The compound of the present invention was added into a mixture formed by dissolving and dispersing Tween-20 and/or Span-20 in water after being subjected to a pretreatment such as grinding, sieving, etc., and was uniformly dispersed and fixed to a constant volume; the suspension was grinded by a ball mill, then administered. The animals were given a vortioxetine solution (17.5 mg/kg) and a suspension of vortioxetine compound (75 mg/kg) by intramuscular injection. After administration, whole blood was collected at 0.25, 1, 2, 5, 7, 24, 48, 72, 96, 120, 148, and 196 h, and plasma was separated and frozen for testing. And the plasma was centrifuge at 12,000 for 2 minutes. Plasma samples were collected and stored at −20° C. or −70° C. until LC/MS/MS analysis. […] The average drug-time curve of some of the compounds of the present invention after intramuscular injection in rats is shown in FIG. 1.

Molecules are shown by their SMILES.

What is called Tmax is the time from dosing to the highest level. Turning to `Cc1ccc(Sc2ccccc2N2CCNCC2)c(C)c1` [WTXT, Vortioxetine], the AUC(0-t) (read-out: Exposure level AUClast) worked out at 1.37 µg·h/mL. Moreover, the half-life (read-out: Half-life period T1/2 (converted)) is 2.74 h. Moreover, for the setting “read-out: Peak concentration Cmax”, the Cmax was 0.53 µg/mL. Besides, the Tmax (read-out: Time to peak Tmax) was 0.25 h.
